The values that follow come from paper PMC10951066, “The self-reactive FVIII T cell repertoire in healthy individuals relies on a short set of epitopes and public clonotypes” (Frontiers in Immunology, 2024).

Experiment [1] concerns CD4 T cells from healthy donors. As to the kind of experiment: Large-scale CD4 T cell epitope mapping by IFN-γ ELISPOT (16 donors). Format: cell-based, human. As to conditions: for Donor coverage ( %): of 16 donors; for responding donors: of 16 healthy donors, individual peptide 10 µg/ml; for response intensity ( %): percentage of 872 FVIII-specific T cell lines. From the text:
PBMCs were purified from the whole blood of anonymous healthy donors, who gave informed consent (Etablissement Français du Sang, Rungis, France), using Ficoll-Paque®. Monocyte-derived dendritic cells (DCs) were produced from cells isolated using Percoll gradient by 5 days of culture in AIM-V medium (Invitrogen, Villebon-sur-Yvette, France) supplemented with 1,000 U/ml recombinant human (rh) IL-4 and rhGM-CSF (both from R&D Systems, Lille, France). Mature DCs were produced by two supplementary days of culture in the presence of LPS (1 µg/ml) and R848 (10µg/ml). CD4 T cells were isolated from autologous PBMCs by positive selection using magnetic labeling with anti-CD4 mAbs conjugated to magnetic microbeads followed by magnetic cell sorting, as recommended by the manufacturer (Miltenyi Biotec, Bergisch Gladbach, Germany). Immature DCs were loaded overnight at 37 °C with either 0.2 µM of rFVIII, 0.2 µM of ovalbumin, or 0.25 µM of KLH in 96-well U-bottom plates, while mature DCs were used for FVIII peptides (10 ug/ml). CD4 T cell lines were generated in vitro in IMDM (Invitrogen) supplemented with 10% human serum, 0.24 mM glutamine, 0.55 mM asparagine, 1.5 mM arginine (all amino acids from Sigma-Aldrich), 50 U/mL penicillin/50 μg/mL of streptomycin (Invitrogen), 20 IU/mL human IL-2, and 17 IU/ml human IL-7 (premium-grade; Miltenyi Biotec) by three once-per-week rounds of stimulation of CD4 T cells (200,000 per well) with autologous DCs (20,000 per well). 10,000 lymphocytes were collected at day 19 from each T cell line (expanded T cells contained in one well) and their specificity was assessed by using IFN-g ELISPOT.
The T cell lines and APCs were plated at equal number for both stimulated and unstimulated control conditions. […] The spot number was determined by using the ELISPOT Reader System (Autoimmun Diagnostika, Ebinger, Germany). HLA restriction was assessed using monoclonal antibodies (10 μg/ml) specific to HLA-DP (B7/21), HLA-DQ (SPVL3), or HLA-DR (L243).
Based on the T cell epitope prediction software NetMHCpan4.0 ([23]), we selected 63 20-mer peptides that are predicted for their ability to bind promiscuously, with a percentile score below 10%, at least four HLA class II molecules from a selection of 15 preponderant HLA-DR alleles in our panel (as shown in ST1). […] A total of 16 healthy donors with unrelated HLA typing (ST2) were used as sources of T cells to identify FVIII-specific CD4 T cell epitopes. Specific T cell lines were generated by in vitro T cell culture using FVIII and KLH. The peptide specificity of the T cell lines raised against FVIII was assessed by two independent IFN-γ ELISPOT using peptide pools and individual peptides. […] Furthermore, four independent healthy donors were used as sources of T cells to characterize the HLA restriction and to assess the reactivity of T cell lines generated with the 18 peptides toward rFVIII. T cell lines were amplified in vitro for 28 days through stimulation with the pool of 18 peptides and then tested through IFN-γ ELISPOT.

Experiment [2] addresses HLA-DRB1*0401 (Homo sapiens, UniProt P01903+P01911, A100K/A169T/F76Y/I96L/K127E/L162R/M171V/N62H/P40V/Q125Y/R42H/S133A/S149N/S66Y/V115G/V209L/W38E). In words: Peptide-MHCII competition binding assay. As to conditions: competition ELISA, pH 5.9, peptide 90.000nM – 0.9nM, HLA-DRB1 30 nM, biotinylated peptide 15nM, duplicate wells; ratios below 10 = good binding; reference peptide […]. As to the method:
(§1) Quantitative peptide-MHCII competition binding assays were carried out to determine binding avidities of the 18 20-mer FVIII peptides to 6 HLA-DRB1. Data are presented as ratio between reference peptide IC50/FVIII-peptide IC50 tested. Briefly, non-biotinylated FVIII peptides have been diluted at a concentration of 20 mM in DMSO. 10-µl aliquots of serially diluted (90.000nM – 0.9nM in n-Octyl b-D-Glucopyranoside, 2.5 mg/ml in 1x phosphate buffer, pH 5.9) of non-biotinylated FVIII peptides, were added to duplicate wells of 96-well polypropylene plates. Serially diluted non-FVIII reference peptides known to bind to the specific HLA-DRB1 were added to separate wells as positive controls. Next, the biotinylated peptide at a concentration of 2mM was use to prepare 1000-fold pre-dilution to reach a final concentration of 15nM. The HLA-DRB1 proteins were diluted to 30 nM in n-Octyl β-D-Glucopyranoside, 2.5 mg/ml in 1x phosphate buffer, pH 5.9. […] SA-HRP (diluted 5000x in 1xPBS 0.1% Tween20) was added to each well. The plates were covered and incubated at room temperature for 60 min […] and washed. TMB (100 μl/well) was then added, and the plates were incubated at room temperature for 15-30 min. ELISA stopping solution (0.5M H2SO4) was added and then read on a FLUOstar OPTIMA fluorometer. Sigmoidal binding curves were simulated and IC50 values calculated for the FVIII peptides, based on their competition with the reference peptides for each HLA-DRB1. Data were reported as the ratio between the values of the tested peptide and of the reference peptide. Ratios below 10 correspond to good biding affinity.
For orientation: In an ELISA, binding on a coated surface is turned into a signal by an enzyme label.

Experiment [3] addresses HLA-DRB1*0101 (Homo sapiens, UniProt P01903+P01911, A100R/D57E/F55L/F60I/F76Y/I96L/L162R/M171V/P40L/Q125E/R42F/V115G/Y59C). As to the kind of experiment: Peptide-MHCII competition binding assay. As to conditions: competition ELISA, pH 5.9, peptide 90.000nM – 0.9nM, HLA-DRB1 30 nM, biotinylated peptide 15nM, duplicate wells; ratios below 10 = good binding; reference peptide […]. As to the method: as §1

The target in experiment [4] is HLA-DRB1*0701 (Homo sapiens, UniProt P01903+P01911, A100R/A102G/A103Q/D57E/D86V/E43K/F76Y/K127E/L162R/M171V/P40G/Q125H/Q99D/R33Q/R42Y/R54Q/S133A/S66F/T210M/V115G/Y107V/Y59L/Y89S). As to the kind of experiment: Peptide-MHCII competition binding assay. As to conditions: competition ELISA, pH 5.9, peptide 90.000nM – 0.9nM, HLA-DRB1 30 nM, biotinylated peptide 15nM, duplicate wells; ratios below 10 = good binding; reference peptide PVDLHAFLSQAVFS
The method, then:
as §1

In experiment [5] the target is HLA-DRB1*1501 (Homo sapiens, UniProt P01903+P01911). As to the kind of experiment: Peptide-MHCII competition binding assay. The following applies: competition ELISA, pH 5.9, peptide 90.000nM – 0.9nM, HLA-DRB1 30 nM, biotinylated peptide 15nM, duplicate wells; ratios below 10 = good binding; reference peptide ENPVVHFFKNIVTPR
As to the method:
as §1

For experiment [6], the target named is HLA-DRB1*0301 (Homo sapiens, UniProt P01903+P01911, A100K/A102G/A103R/A169T/F55Y/I96L/K41T/L162R/M171V/P40S/Q125H/Q178H/Q39Y/R42S/S66N/T106N/T262R/W38E/Y61H). In words: Peptide-MHCII competition binding assay. The following applies: competition ELISA, pH 5.9, peptide 90.000nM – 0.9nM, HLA-DRB1 30 nM, biotinylated peptide 15nM, duplicate wells; ratios below 10 = good binding; reference peptide SFLLTDLINRRTPRVDGQ
As to the method: as §1

Experiment [7] has as its target HLA-DRB1*1101 (Homo sapiens, UniProt P01903+P01911, A100R/A169T/A87E/I96F/K41T/L162R/M171V/P40S/Q125H/Q178H/Q39Y/Q99D/R42S/S66Y/T262R/V115G/W38E). As to the kind of experiment: Peptide-MHCII competition binding assay. The following applies: competition ELISA, pH 5.9, peptide 90.000nM – 0.9nM, HLA-DRB1 30 nM, biotinylated peptide 15nM, duplicate wells; ratios below 10 = good binding; reference peptide […]. The method, then: as §1

On to “TQGVKSLLTSMYVKEFLISS [P2264-2283, 20-mer FVIII peptide, C2 domain]”, for which, in experiment [1], the “Donor coverage ( %)” value is 50%, the responding donors stood at 8 and the “response intensity ( %)” value is 1,72%. Also, the “Ratio IC50 DRB1*0401” value in experiment [2] is 5.5. Besides, the “Ratio IC50 DRB1*0101” value in experiment [3] was found to be 6242. Besides, the “Ratio IC50 DRB1*0701” value in experiment [4] is 0.05. Further, the “Ratio IC50 DRB1*1501” value in experiment [5] was determined as 480. Further, the “Ratio IC50 DRB1*0301” value in experiment [6] is listed as 17. For the same sequence, in experiment [7], the “Ratio IC50 DRB1*1101” value is recorded as 0.05.

Consider “GHTFLVRNHRQASLEISPIT [P292-311, 20-mer FVIII peptide, A1 domain]”, for which the “nb positive T cell lines” value in experiment [1] (across all 16 donors) is 26. Moreover, the “cumulative donor coverage (%)” value in experiment [1] (cumulative over peptides ranked by donor coverage) was 81%. Besides, in experiment [1], the “Donor coverage ( %)” value turned out to be 75%, the responding donors is reported as 12 and the “response intensity ( %)” value was 2,98%. In experiment [2], the “Ratio IC50 DRB1*0401” value was 22.5. Besides, in experiment [3], the “Ratio IC50 DRB1*0101” value worked out at 34. In addition, the “Ratio IC50 DRB1*0701” value in experiment [4] came out at 1. The “Ratio IC50 DRB1*0301” value in experiment [6] was determined as 72. Further, the “Ratio IC50 DRB1*1101” value in experiment [7] stood at 0.05.
